From patent EP4700040A1, “PEPTIDE AND LUMINESCENT COMPLEX CONTAINING SAME” (Shenzhen Loggene Life Science & Technology Co., Ltd., priority 2023, dated 2024)

Tests used:
Type in all cases: biochemical, human
PCT [1] = experiment: Complementary activity of small subunits mutated at conserved positions, Furimazine substrate (Example 6); details: MBP-PCT 3.3 ng/ml, supernatant; for activity (luminescence signal value), 3 min: 3 min after Furimazine 25 µM; for activity (luminescence signal value), 6 min: 6 min after Furimazine 25 µM
Description: Detection Methods: • (1) The concentration of large subunit-rSCFV5 fusion protein was diluted to 12.5 nM, and 15 µl was added per well; • (2) MBP-PCT fusion protein was diluted to 3.3 ng/ml with PBSAD, and 10 µl was added per well; • (3) HB2151 strain containing plasmids with different small subunit sequences were induced by IPTG at 30°C overnight, then treated with polymyxin B for 1.5h, and centrifuged to collect the supernatant, and 2.5µl supernatant was added per well; • (4) The above three components were slightly mixed, incubated at 37°C for 7 min, and Obuffer 6.37-3 containing Furimazine at a concentration of 25 µM was added, […], the luminescence signal value was detected using a bioluminescence detector; and • (5) Clones with RLU higher than 10,000 were picked. The substrate was replaced with CTZ-h substrate for retesting (Obuffer 6.37-3 containing CTZ-h at a concentration of 25 µM was added, and after 60 s, the luminescence signal value was detected using a bioluminescence detector), and a PBSAD control was added to test the signal-to-noise ratio.
In order to further determine whether these three conserved amino acid sequences were changed, this example constructed a random mutation library of these three positions, with a theoretical diversity of 8,000 and a library capacity of 10^6, and 2,000 single clones were picked. The method of protein induction and expression was the same as that in Example 1. The complementary activity was tested in the same manner as that in Example 4, but the signal-to-noise ratio was not retested with CTZ-h. Clones with different activity were randomly picked for sequencing.

PCT [2] = experiment: Luciferase dual-antibody complementary activation assay for PCT detection, clone supernatants, retest with CTZ-h (Example 1); details: for Signal-to-noise ratio: RLU antigen+/RLU antigen-, MBP-PCT 3.3 ng/ml, CTZ-h; for PCT+: luminescence signal value with MBP-PCT 3.3 ng/ml, large subunit-rSCFV5 50 nM, supernatant; for PCT+ / PCT-: retest CTZ-h 25 µM, read after 60 s; for PCT-: luminescence signal value, background control PBSAD without PCT
Description: In order to improve the signal-to-noise ratio and complementary activity of the luciferase dual-antibody complementary activation assay, a series of complementary luciferase small subunits were prepared in this example. Large subunit-rSCFV5 fusion protein (SEQ ID NO: 87) was kept unchanged, and the small subunit sequence of the rSCFV18-small subunit P114 fusion protein (SEQ ID NO: 88) was modified by semi-randomization to prepare rSCFV18-small subunit mutant fusion proteins. Based on the sequence of small subunit P114, and with reference to the 3D structure of complementary luciferase, computer-aided sequence design was employed to generate a library with a theoretical diversity of 2.49*10^6. Primers were designed for PCR amplification using the plasmid pComb3x of rSCFV18-small subunit P114 fusion protein as a template. Subsequently, an expression vector library was constructed by means of restriction digestion and ligation (SfiI, NheI), and a semi-random amino acid mutation library was introduced into the small subunit position and transformed into HB2151 competent cells, yielding a library capacity of 7.6*10^9. The 100 plates were spread, and 9,500 single clones were picked and inoculated into 600 µL of 2YTA medium, followed by incubation at 37°C with shaking at 250 rpm for 2 h. When the bacterial density reached approximately OD600 = 0.6~1.0, IPTG was then added to a final concentration of 1 mM, and the culture was further incubated at 30°C with shaking at 250 rpm for 20 h. The next day, the bacteria were collected by centrifugation at 4°C, 4,500g for 10min. The supernatant was discarded, and the precipitate was resuspended with 200µl of PBS containing polymyxin B at a final concentration of 20,000 u/ml. The suspension was incubated at room temperature with shaking at 100rpm for 1h, and then centrifuged at 4500g for 10min, and the supernatant was used for the test.
Test Methods: • (1) The concentration of large subunit-rSCFV5 fusion protein was diluted to 50 nM, and 15 µl was added per well; • (2) MBP-PCT fusion protein was diluted to 3.3 ng/ml with PBSAD, and 15 µl was added per well. The background control was PBSAD, and 10 µl was added per well; • (3) HB2151 strain containing expression plasmids with different small subunit were induced by 1 mM of IPTG at 30°C overnight, then treated with polymyxin B for 1.5 h, and centrifuged to collect the supernatant, and 2.5 µl supernatant was added per well; • (4) The above three components were slightly mixed, incubated at 37°C for 7 min, and Obuffer 6.37-3 containing Furimazine at a concentration of 25 µM was added, and after 80 s, the luminescence signal value was detected using a bioluminescence detector; and • (5) Clones with RLU higher than 10,000 and a signal-to-noise ratio (RLU antigen+/RLU antigen-) higher than that of the rSCFV18-small subunit P114 fusion protein were selected for retesting. The substrate was replaced with CTZ-h for retesting. Obuffer 6.37-3 containing CTZ-h at a concentration of 25 µM was added, and after 60 s, the luminescence signal value was detected using a bioluminescence detector.

PCT [3] = experiment: Second library screening for PCT detection, clone supernatants, retest with CTZ-h (Example 4)
Description: In order to further improve the signal-to-noise ratio and complementary activity of the luciferase dual-antibody complementary activation assay, novel complementary luciferase small subunits were prepared in this example. Large subunit-rSCFV5 fusion protein (SEQ ID NO: 87) was kept unchanged, and the small subunit sequence of the rSCFV18-RB073 fusion protein (SEQ ID NO: 89) were modified by semi-randomization. The theoretical diversity was 6912, the library capacity was 10^6, and 3,000 single clones were picked. The method of protein induction and expression was the same as that in Example 2.
Detection Methods: • (1) The concentration of large subunit-rSCFV5 fusion protein was diluted to 12.5 nM, and 15 µl was added per well; • (2) MBP-PCT fusion protein was diluted to 3.3 ng/ml with PBSAD, and 10 µl was added per well; • (3) HB2151 strain containing plasmids with different small subunit sequences were induced by IPTG at 30°C overnight, then treated with polymyxin B for 1.5h, and centrifuged to collect the supernatant, and 2.5µl supernatant was added per well; • (4) The above three components were slightly mixed, incubated at 37°C for 7 min, and Obuffer 6.37-3 containing Furimazine at a concentration of 25 µM was added, and after 3 min, the luminescence signal value was detected using a bioluminescence detector; and • (5) Clones with RLU higher than 10,000 were picked. The substrate was replaced with CTZ-h substrate for retesting (Obuffer 6.37-3 containing CTZ-h at a concentration of 25 µM was added, and after 60 s, the luminescence signal value was detected using a bioluminescence detector), and a PBSAD control was added to test the signal-to-noise ratio.

PCT [4] = experiment: Sensitivity and linear range for PCT detection of preferred small subunits (Example 5); details: for luminescence value: normalized
Description: Detection Methods: • (1) The concentration of large subunit-rSCFV5 fusion protein was diluted with PBSA to 8.3~25nM, and 15µl was added per well; • (2) MBP-PCT fusion proteins were diluted with PBSAD in a downward gradient starting from 2.5 µg/ml, and 10 µl was added per well; • (3) The rSCFV18-small subunit mutant-containing fusion protein was diluted with PBSA to 30~180 nM, and 15 µl was added per well; • (4) The above three components were slightly mixed, incubated at 37°C for 15 min, and Obuffer 6.37-3 containing CTZ-h at a concentration of 15 µM was added, and the luminescence signal value was immediately detected using a bioluminescence detector (the luminescence value was normalized);

Sequence | Signal-to-noise ratio (PCT [2]) | PCT+ (PCT [2]) | PCT- (PCT [2]) | activity (luminescence signal value), 3 min (PCT [1]) | activity (luminescence signal value), 6 min (PCT [1]) | other results
AEGYHLFRSKS [RD-108] |  |  |  | 50 | 53 | 
AEGYRLFDRKS [RD-012] |  |  |  | 3586 | 2963 | 
AEGYRLFDRKS [RD-045] |  |  |  | 2398 | 2087 | 
AEGYRLFDRKS [RD-086] |  |  |  | 3394 | 3222 | 
AEPYRIFDRKS [RD-099] |  |  |  | 221 | 52 | 
AESYKLFDRKS [RD-100] |  |  |  | 44 | 214 | 
IEGYRLFDRKS [RD-084] |  |  |  | 2497 | 2394 | 
IEGYRLFDRKS [RD-092] |  |  |  | 4905 | 4539 | 
VEGYHLFDRKS [RD-103] |  |  |  | 211 | 204 | 
VEGYRLFERKS [RB033] | 25.7 | 109352 | 4101 |  |  | 
VEGYRLFERKW [RB035] | 31.6 | 58318 | 1790 |  |  | 
VEGYRLFNKKS [RB054] | 25.7 | 92160 | 3449 |  |  | 
VEGYRLFNRKS [RB075] | 27.1 | 76733 | 2735 |  |  | 
VEGYRLFNRVS [RB027] | 22.6 | 101765 | 4316 |  |  | 
VEGYRLHEKIS [RA128] | 45.2 | 17891 | 387 |  |  | 
VEPYKLFDRKS [RD-098] |  |  |  | 214 | 49 | 
VEPYKLFDRKS [RD-104] |  |  |  | 215 | 222 | 
VSGYRLFDKVS [RC-178] |  |  |  |  |  | Signal-to-noise ratio (PCT [3]; PCT+/PCT-, MBP-PCT 3.3 ng/ml, CTZ-h): 9.6; PCT+ (PCT [3]; luminescence signal value with MBP-PCT 3.3 ng/ml, large subunit-rSCFV5 12.5 nM, CTZ-h 25 µM, 60 s): 5708; PCT- (PCT [3]; luminescence signal value, PBSAD control without PCT, large subunit-rSCFV5 12.5 nM, CTZ-h 25 µM, 60 s): 593; luminescence value (PCT [4]; PCT 0.0, background): 5000; luminescence value (PCT [4]; PCT 1 (pg/ml)): 4911; luminescence value (PCT [4]; PCT 3 (pg/ml)): 5152; luminescence value (PCT [4]; PCT 10 (pg/ml)): 5180; luminescence value (PCT [4]; PCT 30 (pg/ml)): 6047; luminescence value (PCT [4]; PCT 100 (pg/ml)): 8378; luminescence value (PCT [4]; PCT 1000 (pg/ml)): 41922; luminescence value (PCT [4]; PCT 10000 (pg/ml)): 350855; luminescence value (PCT [4]; PCT 100000 (pg/ml)): 1664322; luminescence value (PCT [4]; PCT 250000 (pg/ml)): 1858964; Signal-to-noise ratio at 1000 pg/ml (PCT [4]; large subunit 8.3~25 nM, small subunit fusion 30~180 nM, CTZ-h 15 µM): 8.4

The next lines start with results.

Signal-to-noise ratio (PCT [2]) | PCT+ (PCT [2]) | PCT- (PCT [2]) | Sequence | activity (luminescence signal value), 3 min (PCT [1]) | activity (luminescence signal value), 6 min (PCT [1]) | other results
33.6 | 37398 | 1080 | VEGYRLFDRKL [RB209] |  |  | 
33.6 | 33103 | 957 | VEGYRLFDRKL [RB212] |  |  | 
45.1 | 27190 | 590 | VEGYRLFDRKW [RB186] |  |  | 
38.8 | 26168 | 658 | VEGYRLFDRVW [RB128] |  |  | 
21 | 79060 | 3587 | VEGYRLFEKKL [RB149] |  |  | 
36.9 | 41446 | 1094 | VEGYRLFEKVW [RB172] |  |  | 
31.3 | 57092 | 1769 | VEGYRLFERIW [RB113] |  |  | 
35.3 | 50183 | 1384 | VEGYRLFERIW [RB240] |  |  | 
25.2 | 74319 | 2837 | VEGYRLFERKL [RB157] |  |  | 
21 | 95553 | 4346 | VEGYRLFERKS [RB097] |  |  | 
35 | 44654 | 1242 | VEGYRLFERKW [RB276] |  |  | 
32.1 | 53945 | 1630 | VEGYRLFERVL [RB150] |  |  | 
40 | 37150 | 906 | VEGYRLFKREL [RB152] |  |  | 
30.8 | 41519 | 1307 | VEGYRLFNEKS [RB195] |  |  | 
20.3 | 70963 | 3324 | VEGYRLFNRKS [RB252] |  |  | 
34.7 | 39231 | 1099 | VEGYRLFNRKW [RB223] |  |  | 
20.2 | 55355 | 2605 | VEGYRLFNRVG [RB122] |  |  | 
